Several values for one entry are separate records, joined by “and”; a condition that tells them apart may be missing. Equal entries are not always repeated.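 Cells were grown in 96-well plates and exposed to each compound for 48 hours at five concentrations; endpoints were interpolated linearly between bracketing concentrations, or set to the highest concentration if not reached. GI50 marks 50% less growth. TGI: concentration producing complete growth inhibition.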
Legend:
Test in all cases: NCI tumour cell line growth inhibition, 48 h
[1] = tested on: SK-MEL-2 melanoma
[2] = tested on: A549 NSCLC
[3] = tested on: RPMI-8226 leukemia
[4] = tested on: IGROV1 ovarian
[5] = tested on: SNB-75 CNS
[6] = tested on: MOLT-4 leukemia
[7] = tested on: OVCAR-5 ovarian
[8] = tested on: SR leukemia
[9] = tested on: M14 melanoma
[10] = tested on: SK-OV-3 ovarian

Structure (SMILES)	GI50 [1]	TGI [1]	GI50 [2]	TGI [2]	GI50 [3]	TGI [3]	GI50 [4]	TGI [4]	GI50 [5] [µM]	TGI [5]	GI50 [6] [µM]	TGI [6]	GI50 [7]	TGI [7]	GI50 [8] [µM]	TGI [8] [µM]	GI50 [9]	TGI [9]	GI50 [10]	TGI [10]
C=C1C(=O)O[C@H]2[C@H]1CC/C(COC(=O)NCc1c[nH]c3ccc(F)cc13)=C\CC[C@@]1(C)O[C@@H]21	1.5 µM	3.39 µM	3.17 µM	10.9 µM	0.456 µM	2.27 µM	1.54 µM	3.34 µM	1.33	2.76 µM	1.42	5.07 µM	1.81 µM	4.05 µM	0.266	5.85	1.23 µM	2.73 µM	11.1 µM	23.1 µM
CN(C)CCCn1c2c(c3cc4c(cc3c1=O)OCO4)C(=O)c1ccccc1-2	18.4 µM	> 59.5 µM	0.105 µM	2.43 µM	0.208 µM	2.82 µM	3.33 µM	12.6 µM	5.89	37.4 µM	< 0.0218	0.792 µM	11.1 µM	45.7 µM	–	0.0486	0.0984 µM	1.38 µM	4.99 µM	> 39.3 µM
COCCOCCOCCOCCOC(=O)OC[n+]1ccc(NC(=NCCCCCCOc2ccc(Cl)cc2)NC#N)cc1	11.4 µM	27.3 µM	2.22 µM	19.2 µM	< 0.01 µM	3.13 µM	0.465 µM	24.7 µM	14.1	27.9 µM	1.95	19.5 µM	3.98 µM	22 µM	0.0905	> 45.6	0.0409 µM	14.7 µM	11.3 µM	23.6 µM
COc1ccc2c(c1)C(=O)c1c-2c(=O)n(CCCN(C)C)c2cc(OC)c(OC)cc12	> 100 µM	> 100 µM	7.03 µM	22 µM	8.14 µM	42.3 µM	10.1 µM	21.8 µM	10.1	23 µM	0.149	12 µM	20.3 µM	35.7 µM	0.128	7.63	6.65 µM	21.7 µM	5.15 µM	19.5 µM
C#CCNC(=O)NC(CCCCNC(=O)OCc1ccccc1)C(=O)OCc1ccccc1 (stereo not drawn)	–	> 75.8 µM	–	> 100 µM	–	70.9 µM	–	> 100 µM	–	37.3 µM	–	85.7 µM	–	> 100 µM	–	> 100	–	58.4 µM	–	> 100 µM
CC(=O)OCC(CC[CH2][Sn]([Cl])([Cl])[c]1ccccc1)OC(C)=O (stereo not drawn)	18.8 µM	36.4 µM	21.9 µM	53 µM	22.9 µM	58.9 µM	25.5 µM	68.8 µM	55.8	> 100 µM	22	63.7 µM	15.7 µM	42 µM	10.7	50.4	16.2 µM	29.7 µM	21.1 µM	44.2 µM
O=S(=O)(O)c1ccc2cc3nn(-c4ccc(/C=C/c5ccc(-n6nc7cc8ccc(S(=O)(=O)O)cc8cc7n6)cc5S(=O)(=O)O)c(S(=O)(=O)O)c4)nc3cc2c1	> 100 µM	> 100 µM	41.7 µM	> 100 µM	> 100 µM	> 100 µM	27 µM	> 100 µM	> 100	> 100 µM	12.2	81.7 µM	62.5 µM	> 100 µM	34.4	> 100	44.5 µM	> 100 µM	> 100 µM	> 100 µM
COc1ccc(/C=N\Nc2nc(SCC(C)C)nc(-c3ccc(OC)cc3)c2C#N)cc1	17.2 µM	39.7 µM	0.524 µM	16.2 µM	5.48 µM	> 100 µM	1.92 µM	20 µM	1.67	8.06 µM	12.9	> 100 µM	20.4 µM	> 100 µM	8.69	96	13 µM	92.2 µM	1.46 µM	14.6 µM
CCOC(=O)C(Cc1ccc(N(CCCl)CCCl)cc1)NC(=O)C(Cc1ccccc1)NC(C)=O (stereo not drawn)	–	> 0.36 µM	–	> 1 µM	–	0.211 µM	–	> 0.308 µM	–	> 1 µM	–	0.201 µM	–	> 0.435 µM	–	> 1	–	> 0.318 µM	–	> 0.44 µM
COc1cc2c(cc1NC(=O)C(Cl)Cl)-c1ccc(NC(=O)C(Cl)Cl)cc1C2	0.708 µM	2.07 µM	0.741 µM	2.73 µM	0.374 µM	1.21 µM	1.16 µM	5.58 µM	0.758	3.19 µM	11.9	> 89.6 µM	1.77 µM	4.75 µM	5.27	24.2	3.14 µM	16.5 µM	6.67 µM	20.6 µM
COc1ccc2nc3cc(Cl)ccc3c(N3CCN(c4ccnc(N5CCN(C)CC5)n4)CC3)c2c1	3.72 µM	12.2 µM	14.8 µM	36 µM	2.04 µM	4.84 µM	2.24 µM	5.08 µM	1.47	3.05 µM	2.38	5.81 µM	1.81 µM	3.9 µM	2.19	5.94	2.04 µM	4.06 µM	12.9 µM	26.2 µM
O=c1[nH]c2ccccc2n1C1CCN(CCCC(c2ccc(F)cc2)c2ccc(F)cc2)CC1	2.1 µM and 5.52 µM	3.96 µM and 12.3 µM	1.48 µM and 7.32 µM	3.14 µM and 21.9 µM	2.06 µM and 3.96 µM	8.97 µM and 20.4 µM	1.96 µM	3.86 µM and 32.4 µM	–	25.6 µM	2.23	5.75 µM and 16.6 µM	1.74 µM	3.51 µM and 22.8 µM	–	5.22	1.83 µM	3.72 µM and 8.19 µM	1.56 µM	3.12 µM and 24.9 µM
O=C1/C(=C/c2ccccc2[N+](=O)[O-])COc2ccc(O)cc21	2.98 µM	11 µM	4.49 µM	19.4 µM	0.612 µM	5 µM	0.529 µM	2.08 µM	2.76	19.6 µM	2.27	8.23 µM	1.73 µM	3.64 µM	0.366	> 100	1.9 µM	4.85 µM	5.25 µM	17.6 µM
COc1ccc(-c2c3c(N)c4c(nc3nc3c2c(C)nn3-c2ccccc2)CCCC4)cc1	2.63 µM	5.95 µM	3.01 µM	11 µM	1.92 µM	4.32 µM	4.26 µM	18.6 µM	14	31.8 µM	2.3	5.77 µM	10.1 µM	23.2 µM	1.84	5.01	3.74 µM	13 µM	12.1 µM	24.6 µM
O=c1[nH]c(=S)[nH]c(-c2ccccc2)c1Cc1c(O)ccc2ccccc12	–	48.6 µM	–	> 100 µM	–	67.6 µM	–	> 100 µM	–	65 µM	–	> 100 µM	–	> 100 µM	–	> 100	–	78.5 µM	–	> 100 µM
COc1c(CC=C(C)C)c(O)c(C(CC(C)C)c2c(O)c(CC=C(C)C)c(O)c(C(C)=O)c2O)c(O)c1C(C)=O (stereo not drawn)	–	1.94 µM	–	12.1 µM	–	4.17 µM	–	13.4 µM	–	8.32 µM	–	2.48 µM	–	19.7 µM	–	3.8	–	5.72 µM	–	11.1 µM
c1ccc(CN2COc3c(ccc4c5c(ccc34)CN(Cc3ccccc3)CO5)C2)cc1	–	> 100 µM	–	> 100 µM	–	> 100 µM	–	> 100 µM	–	> 100 µM	–	> 100 µM	–	> 100 µM	–	> 100	–	> 100 µM	–	> 100 µM
O=C(c1c(O)cc(O)cc1O)C1Cc2ccccc21 (stereo not drawn)	–	> 100 µM	–	> 100 µM	–	> 100 µM	–	> 100 µM	–	60.9 µM	–	> 100 µM	–	> 100 µM	–	> 100	–	> 100 µM	–	> 100 µM
NCc1ccc(-c2nc(-c3ccc(Cl)c(O)c3)c(-c3ccncc3)[nH]2)cc1	1.65 µM	9.86 µM	> 25 µM	> 25 µM	> 25 µM	> 25 µM	> 25 µM	> 25 µM	4.1	> 20 µM	> 25	> 25 µM	> 25 µM	> 25 µM	> 25	> 25	5.47 µM	24.7 µM	> 25 µM	> 25 µM
COc1cc(/C=C/C(=O)O[C@H]2[C@H](O[C@@H]3O[C@@H](C)[C@H](O)[C@@H](O)[C@H]3O)[C@@H](O)[C@H](OCCc3ccc(O)c(O)c3)O[C@@H]2COC2OCC(O)(CO)C2O)ccc1O (stereo partly drawn)	> 100 µM	> 100 µM	> 100 µM	> 100 µM	> 100 µM	> 100 µM	> 100 µM	> 100 µM	> 100	> 100 µM	> 100	> 100 µM	> 100 µM	> 100 µM	> 100	> 100	> 100 µM	> 100 µM	> 100 µM	> 100 µM
N#Cc1cc2c(cc1Cl)Sc1nnc(Nc3cccc4ccccc34)n1S2(=O)=O	17.3 µM	> 100 µM	37 µM	> 100 µM	2.66 µM	7.77 µM	7.38 µM	21.2 µM	6.43	18.2 µM	3.84	> 100 µM	15.1 µM	28.4 µM	2.21	7.82	3.81 µM	22.8 µM	17.4 µM	35.1 µM
Nc1nc(-c2ccc(Cl)cc2)nc2c1sc(=S)n2-c1ccccc1	10.7 µM	41.2 µM	3.67 µM	25.4 µM	5.54 µM	> 100 µM	3.3 µM	17 µM	1.73	3.72 µM	> 100	> 100 µM	4.98 µM	20.5 µM	5.82	> 100	7.87 µM	38.1 µM	3.83 µM	14.5 µM
CCn1ccnc1C(=O)/C=C/c1ccc(CC(=O)Nc2ccc(F)cc2)cc1	6.26 µM	> 16.7 µM	4.16 µM	12.7 µM	2.28 µM	8.09 µM	4.63 µM	> 16.7 µM	2.81	> 16.7 µM	5.28	14.5 µM	4.97 µM	> 16.7 µM	0.529	11.1	3.02 µM	8.06 µM	6.97 µM	> 16.7 µM
C/C(=N\NC(=S)N1CCN(c2ccccn2)CC1)c1ncccn1	2.48 µM	5.88 µM and 18.5 µM	0.117 µM	5.91 µM and 13.2 µM	< 0.0205 µM	2.94 µM and 12.1 µM	< 0.0121 µM	4.31 µM and 16.3 µM	4.48	20.3 µM	–	7.02 µM and > 38.4 µM	–	4.77 µM and 21.5 µM	0.0622	12.3	0.0938 µM	6.06 µM and 2.61 µM	0.0884 µM	4.47 µM and 13 µM
CC1(C)[C@H](O)[C@H](F)C[C@@]2(C)Oc3ccc(C(=O)Nc4ccc5c(c4)NC(=O)C54CCN(CCCCC#N)CC4)cc3C[C@H]12	1.14 µM	2.44 µM	–	8.4 µM	0.00262 µM	–	2.05 µM and 3.63 µM	34.4 µM	0.00679	6.38 µM and 2.2 µM	0.00568	1.09 µM and 1.63 µM	5.41 µM and 5.82 µM	34.5 µM	0.0106	2.6	0.606 µM and 1.06 µM	4.97 µM and 3.79 µM	2.1 µM and 0.341 µM	3.54 µM
N#C/C(=C\c1cc2ccc(N3CCC3)cc2oc1=O)C(=O)N(CC(=O)O)CC(=O)O	> 100 µM	> 100 µM	> 100 µM	> 100 µM	> 100 µM	> 100 µM	> 100 µM	> 100 µM	> 100	> 100 µM	> 100	> 100 µM	> 100 µM	> 100 µM	> 100	> 100	> 100 µM	> 100 µM	> 100 µM	> 100 µM

Reference: PubChem BioAssay (NCI)
